Measured values from PubChem BioAssay AID228 (DTP/NCI, 2004).
Values joined by “and” are separate entries in the source; they are usually repeats but may differ in a detail not shown here. Equal values may be shown once. Results filed as inconclusive are left out.

Test system: BDF1 mice, Friend leukemia sc, tumor weight T/C
Assay: NCI In Vivo Anticancer Drug Screen. Data for tumor model Friend Virus Leukemia (Solid) (subcutaneous) in B6D2F1 (BDF1) mice
Conditions: endpoint: mean tumor weight, higher = larger tumour
Procedure: The antitumor activity of compounds was measured in mice bearing transplantable tumors. Survival or tumor size were measured and the results are expressed as the measurement made in the treated group (T) divided by the measurement made in the vehicle treated control group (C). The tumor model used in this assay is Friend Virus Leukemia (Solid) (subcutaneous) in B6D2F1 (BDF1) mice

[1] = dose: 62.5 mg/kg/injection, schedule: Q01DX011 (ip), vehicle: carboxymethylcellulose (CMC)
[2] = dose: 100.0 mg/kg/injection, schedule: Q01DX011 (ip), vehicle: carboxymethylcellulose (CMC)
[3] = dose: 125.0 mg/kg/injection, schedule: Q01DX011 (ip), vehicle: carboxymethylcellulose (CMC)
[4] = dose: 6.25 mg/kg/injection, schedule: Q01DX011 (ip), vehicle: carboxymethylcellulose (CMC)
[5] = dose: 27.0 mg/kg/injection, schedule: Q01DX011 (ip), vehicle: carboxymethylcellulose (CMC)
[6] = dose: 500.0 mg/kg/injection, schedule: Q01DX011 (ip), vehicle: carboxymethylcellulose (CMC)
[7] = dose: 3.0 mg/kg/injection, schedule: Q01DX011 (ip), vehicle: carboxymethylcellulose (CMC)
[8] = dose: 6.0 mg/kg/injection, schedule: Q01DX011 (ip), vehicle: carboxymethylcellulose (CMC)
[9] = dose: 18.0 mg/kg/injection, schedule: Q01DX011 (ip), vehicle: carboxymethylcellulose (CMC)
[10] = dose: 60.0 mg/kg/injection, schedule: Q01DX011 (ip), vehicle: carboxymethylcellulose (CMC)
[11] = dose: 120.0 mg/kg/injection, schedule: Q01DX011 (ip), vehicle: carboxymethylcellulose (CMC)

Q: With `O=C(Nc1ccc(C2=NCCN2)cc1)c1ccc(C(=O)Nc2ccc(C3=NCCN3)cc2)cc1` as the compound, how does the T/C (dose: 31.25 mg/kg/injection, schedule: Q01DX011 (ip), vehicle: carboxymethylcellulose (CMC)) read?
A: 94 % of control

Q: What about the T/C [1] of the same compound?
A: 89 % of control

Q: What about the T/C [2] of the same compound?
A: 99 % of control

Q: What about the T/C [3] of the same compound?
A: 5 % of control

Q: What about the T/C (dose: 187.0 mg/kg/injection, schedule: Q01DX011 (ip), vehicle: carboxymethylcellulose (CMC)) of the same compound?
A: 32 % of control

Q: Which results are given for `CCC[CH2][Sn]1([CH2]CCC)[O]C(=O)C[S]1`?
A: T/C (dose: 0.62 mg/kg/injection, schedule: Q01DX011 (ip), vehicle: carboxymethylcellulose (CMC)): 98 % of control; T/C (dose: 1.25 mg/kg/injection, schedule: Q01DX011 (ip), vehicle: carboxymethylcellulose (CMC)): 68 % of control

Q: For `CCC(=O)O[C@H]1CC[C@H]2[C@@H]3CC[C@H]4CC(=O)[C@H](C)C[C@]4(C)[C@H]3CC[C@]12C`, which T/C (dose: 42.0 mg/kg/injection, schedule: Q01DX011 (sc), vehicle: steriod suspending solution) is on record?
A: 212 % of control

Q: What about the T/C (dose: 44.1 mg/kg/injection, schedule: Q01DX011 (sc), vehicle: steriod suspending solution) of the same compound?
A: 173 % of control

Q: And the T/C (dose: 83.0 mg/kg/injection, schedule: Q01DX011 (sc), vehicle: steriod suspending solution)?
A: 227 % of control

Q: And the T/C (dose: 88.2 mg/kg/injection, schedule: Q01DX011 (sc), vehicle: steriod suspending solution)?
A: 184 % of control

Q: What about the T/C (dose: 176.0 mg/kg/injection, schedule: Q01DX011 (sc), vehicle: steriod suspending solution) of the same compound?
A: 225 % of control

Q: And the T/C (dose: 353.0 mg/kg/injection, schedule: Q01DX011 (sc), vehicle: steriod suspending solution)?
A: 168 % of control and 213 % of control

Q: How did the T/C (dose: 1.56 mg/kg/injection, schedule: Q01DX011 (ip), vehicle: carboxymethylcellulose (CMC)) turn out when `CCC1/C=C/C=C/CC(C)C(O)C(C)(O)C(=O)C(C)C(O)C(C)C(=O)C(C)C(O)C(C)/C=C/C(=O)OC2C(C)C(CC1)OC1(OC(CC(C)O)C(C)CC1=O)C2C` (stereo unspecified) (tested in a mixture with another compound) was run?
A: 54 % of control

Q: And the T/C (dose: 3.12 mg/kg/injection, schedule: Q01DX011 (ip), vehicle: carboxymethylcellulose (CMC))?
A: 64 % of control

Q: What about the T/C [4] of the same compound?
A: 46 % of control

Q: How did the T/C (dose: 15.0 mg/kg/injection, schedule: Q01DX011 (ip), vehicle: saline) turn out when `CN(C)C(=S)N=Nc1c(O)[nH]c2ccccc12` was run?
A: 76 % of control

Q: And the T/C (dose: 30.0 mg/kg/injection, schedule: Q01DX011 (ip), vehicle: saline)?
A: 105 % of control

Q: And the T/C (dose: 60.0 mg/kg/injection, schedule: Q01DX011 (ip), vehicle: saline)?
A: 85 % of control

Q: What about the T/C (dose: 120.0 mg/kg/injection, schedule: Q01DX011 (ip), vehicle: saline) of the same compound?
A: 54 % of control

Q: For `C=CC1CN2CCC1CC2C(O)c1ccnc2ccc(OC)cc12` (stereo unspecified), which T/C [5] is on record?
A: 104 % of control

Q: And the T/C (dose: 27.0 mg/kg/injection, schedule: Q01DX011 (ip), vehicle: other)?
A: 202 % of control

Q: And the T/C (dose: 27.5 mg/kg/injection, schedule: Q01DX011 (ip), vehicle: other)?
A: 226 % of control

Q: And the T/C (dose: 55.0 mg/kg/injection, schedule: Q01DX011 (ip), vehicle: carboxymethylcellulose (CMC))?
A: 114 % of control

Q: What about the T/C (dose: 55.0 mg/kg/injection, schedule: Q01DX011 (ip), vehicle: other) of the same compound?
A: 263 % of control

Q: What about the T/C (dose: 110.0 mg/kg/injection, schedule: Q01DX011 (ip), vehicle: other) of the same compound?
A: 105 % of control and 219 % of control

Q: And the T/C (dose: 220.0 mg/kg/injection, schedule: Q01DX011 (ip), vehicle: carboxymethylcellulose (CMC))?
A: 90 % of control

Q: What about the T/C (dose: 220.0 mg/kg/injection, schedule: Q01DX011 (ip), vehicle: other) of the same compound?
A: 204 % of control

Q: With `Nc1ccc2ccccc2c1N=Nc1ccccc1` as the compound, how does the T/C [1] read?
A: 66 % of control

Q: What about the T/C [3] of the same compound?
A: 58 % of control

Q: What about the T/C [6] of the same compound?
A: 25 % of control and 27 % of control

Q: Which results are given for `O=c1[nH]cc(F)c(=O)[nH]1`?
A: T/C [7]: 84 % of control; T/C (dose: 3.3 mg/kg/injection, schedule: Q01DX011 (ip), vehicle: carboxymethylcellulose (CMC)): 101 % of control; T/C [8]: 66 % of control and 44 % of control; T/C (dose: 6.7 mg/kg/injection, schedule: Q01DX011 (ip), vehicle: carboxymethylcellulose (CMC)): 83 % of control; T/C (dose: 13.5 mg/kg/injection, schedule: Q01DX011 (ip), vehicle: carboxymethylcellulose (CMC)): 69 % of control and 71 % of control; T/C [9]: 93 % of control; T/C [5]: 22 % of control and 28 % of control

Q: What does the source list for `O=c1[nH]c(=O)n(C2CC(O)C(CO)O2)cc1F` (stereo unspecified)?
A: T/C (dose: 16.0 mg/kg/injection, schedule: Q01DX011 (ip), vehicle: saline): 92 % of control; T/C (dose: 25.0 mg/kg/injection, schedule: Q01DX011 (ip), vehicle: carboxymethylcellulose (CMC)): 109 % of control; T/C (dose: 32.0 mg/kg/injection, schedule: Q01DX011 (ip), vehicle: saline): 97 % of control; T/C [10]: 72 % of control and 47 % of control; T/C (dose: 84.0 mg/kg/injection, schedule: Q01DX011 (ip), vehicle: saline): 119 % of control; T/C [2]: 4 % of control and 16 % of control; T/C [11]: 18 % of control; T/C (dose: 126.0 mg/kg/injection, schedule: Q01DX011 (ip), vehicle: saline): 16 % of control and 30 % of control

Q: With `CS(=O)(=O)OCCCOS(C)(=O)=O` as the compound, how does the T/C (dose: 15.0 mg/kg/injection, schedule: Q01DX011 (ip), vehicle: carboxymethylcellulose (CMC)) read?
A: 100 % of control

Q: What about the T/C (dose: 30.0 mg/kg/injection, schedule: Q01DX011 (ip), vehicle: carboxymethylcellulose (CMC)) of the same compound?
A: 98 % of control

Q: And the T/C [10]?
A: 31 % of control and 46 % of control

Q: What about the T/C [11] of the same compound?
A: 22 % of control

Q: With `C1OC1C1CO1` (stereo unspecified) as the compound, how does the T/C (dose: 4.5 mg/kg/injection, schedule: Q01DX011 (ip), vehicle: carboxymethylcellulose (CMC)) read?
A: 77 % of control

Q: And the T/C (dose: 9.0 mg/kg/injection, schedule: Q01DX011 (ip), vehicle: carboxymethylcellulose (CMC))?
A: 107 % of control and 115 % of control

Q: And the T/C [9]?
A: 70 % of control and 83 % of control

Q: `O=P1(N(CCCl)CCCl)NCCCO1` (stereo unspecified) was tested. Which T/C (dose: 0.5 mg/kg/injection, schedule: Q01DX015 (ip), vehicle: saline) did it give?
A: 183 % of control

Q: What about the T/C (dose: 1.0 mg/kg/injection, schedule: Q01DX015 (ip), vehicle: saline) of the same compound?
A: 209 % of control

Q: And the T/C (dose: 1.5 mg/kg/injection, schedule: Q01DX011 (ip), vehicle: carboxymethylcellulose (CMC))?
A: 93 % of control

Q: And the T/C (dose: 2.0 mg/kg/injection, schedule: Q01DX015 (ip), vehicle: saline)?
A: 224 % of control

Q: And the T/C [7]?
A: 81 % of control

Q: What about the T/C (dose: 3.0 mg/kg/injection, schedule: Q01DX015 (ip), vehicle: saline) of the same compound?
A: 224 % of control

Q: What about the T/C (dose: 4.0 mg/kg/injection, schedule: Q01DX015 (ip), vehicle: saline) of the same compound?
A: 225 % of control

Q: And the T/C [8]?
A: 89 % of control

Q: What about the T/C (dose: 6.2 mg/kg/injection, schedule: Q01DX011 (ip), vehicle: saline) of the same compound?
A: 117 % of control

Q: And the T/C [4]?
A: 28 % of control

Q: And the T/C (dose: 7.12 mg/kg/injection, schedule: Q01DX011 (ip), vehicle: saline)?
A: 105 % of control

Q: And the T/C (dose: 8.0 mg/kg/injection, schedule: Q01DX011 (ip), vehicle: saline)?
A: 101 % of control

Q: And the T/C (dose: 12.0 mg/kg/injection, schedule: Q01DX011 (ip), vehicle: saline)?
A: 58 % of control

Q: What about the T/C (dose: 12.5 mg/kg/injection, schedule: Q01DX011 (ip), vehicle: carboxymethylcellulose (CMC)) of the same compound?
A: 37 % of control

Q: And the T/C (dose: 12.5 mg/kg/injection, schedule: Q01DX011 (ip), vehicle: saline)?
A: 64 % of control

Q: What about the T/C (dose: 14.25 mg/kg/injection, schedule: Q01DX011 (ip), vehicle: saline) of the same compound?
A: 52 % of control

Q: And the T/C (dose: 23.0 mg/kg/injection, schedule: Q01DX011 (ip), vehicle: saline)?
A: 14 % of control

Q: And the T/C (dose: 25.0 mg/kg/injection, schedule: Q01DX011 (ip), vehicle: saline)?
A: 14 % of control

Q: And the T/C (dose: 28.5 mg/kg/injection, schedule: Q01DX011 (ip), vehicle: saline)?
A: 32 % of control

Q: What about the T/C (dose: 29.0 mg/kg/injection, schedule: Q01DX011 (ip), vehicle: saline) of the same compound?
A: 6 % of control

Q: And the T/C (dose: 50.0 mg/kg/injection, schedule: Q01DX011 (ip), vehicle: carboxymethylcellulose (CMC))?
A: 7 % of control and 10 % of control and 11 % of control

Q: Which T/C (dose: 4.7 mg/kg/injection, schedule: Q01DX011 (ip), vehicle: carboxymethylcellulose (CMC)) does the source give for `O=C1CN(/N=C\c2ccc([N+](=O)[O-])o2)C(=O)N1` here?
A: 101 % of control

Q: What about the T/C (dose: 9.5 mg/kg/injection, schedule: Q01DX011 (ip), vehicle: carboxymethylcellulose (CMC)) of the same compound?
A: 91 % of control and 96 % of control

Q: What about the T/C (dose: 19.0 mg/kg/injection, schedule: Q01DX011 (ip), vehicle: carboxymethylcellulose (CMC)) of the same compound?
A: 96 % of control and 100 % of control

Q: `CC(C)=CC1C(C(=O)OCc2ccc(C)cc2C)C1(C)C` (stereo unspecified) was tested. Which T/C (dose: 87.5 mg/kg/injection, schedule: Q01DX011 (ip), vehicle: carboxymethylcellulose (CMC)) did it give?
A: 107 % of control

Q: What about the T/C (dose: 175.0 mg/kg/injection, schedule: Q01DX011 (ip), vehicle: carboxymethylcellulose (CMC)) of the same compound?
A: 83 % of control

Q: What about the T/C (dose: 350.0 mg/kg/injection, schedule: Q01DX011 (ip), vehicle: carboxymethylcellulose (CMC)) of the same compound?
A: 53 % of control

Q: What about the T/C [6] of the same compound?
A: 46 % of control
